The target of assay [1] is T1, full-length WRN helicase (Homo sapiens, UniProt Q14191).
T1 construct: Full length recombinant WRN [18], BLM [19], and FANCJ [20] proteins were purified from insect cells; made in house; host or cells: insect cells
Description: Radiometric helicase inhibitor assay, full-length WRN unwinding of FORKR DNA substrate.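 As to all read-outs here: WRN preincubated with compound 15 min at room temperature, then unwinding run 15 min at 37 °C with 2 mM ATP, relative to WRN unwinding without compound (100%).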 As to conditions: full-length WRN 1 nM, FORKR 0.5 nM; for remaining activity at 50 µM: 50 μM compound, read-out: % Control WRN Helicase Activity; for IC50: radiometric assay, compound 0-100 μM, read-out: IC50. It counts as biochemical.
Description: Fifteen μL of reaction buffer was added to a microcentrifuge tube followed by the addition of 1 μL of selected compounds (0.5–100 μM final concentration) or DMSO. One μL of WRN (full length), RECQ1, FANCJ, BLM or control was added to each reaction and incubated at room temperature for 15 min. Three μL of substrate (0.5 nM FORKR and 2 mM ATP final concentrations) were added to all reactions which were incubated at 37°C for 15 min. Reactions were stopped with the addition of 20 μL of 2X STOP dye containing EDTA, glycerol, bromphenol blue and xylene cyanol. Samples were electrophoresed for 1.5 hr at 200 V on a 12% non-denaturing PAGE gel in 1X TBE Buffer.
The compounds were tested at a single concentration of 50 μM in the radiometric helicase assay with full-length recombinant WRN protein (1 nM) and the FORKR DNA substrate (0.5 nM) as described in the Materials and Methods section.
For each compound, we performed titrations over a wide range of concentrations with a fixed concentration of full-length WRN protein (1 nM), and quantitated unwinding as a percentage of full-length WRN unwinding of the FORKR DNA substrate (0.5 nM) in the absence of compound (Fig 6A and 6B, S3 Fig). […] In addition to determining an IC50 value for each compound, we also conducted helicase assays to determine the reversibility of inhibition by each compound tested. […] The reaction was diluted 100-fold with the addition of DNA substrate (0.5 nM final concentration) and ATP (2 mM final concentration) and unwinding was measured (Fig 7A–7D, S4 Fig). Inhibition was either classified as reversible, partially reversible, minimally reversible, or irreversible based on the ability of helicase activity to recover after dilution of the compound 100-fold.

The target in assay [2] is T1, full-length WRN helicase. In words: Radiometric helicase inhibitor reversibility assay (100-fold dilution). In kind it is biochemical. Also noted: key to Reversibility: (-) = irreversible; (+) = minimally reversible; (++) = partially reversible; (+++) = reversible. As to conditions: WRN 100 nM preincubated at 10-fold IC50, diluted 100-fold; unwinding 0-16 min. The protocol: WRN (full length, 100 nM concentration) was incubated with each small molecule inhibitor at a concentration 10-fold higher than the IC50 for that inhibitor, in a 10 μL reaction at room temperature. 1.5 μL of this reaction was added to 148.5 μL of reaction salts with 2 mM ATP, 0.5 nM FORKR reducing the full length WRN concentration to 1 nM and the drug concentration to 10-fold less than its IC50. Reactions were placed at 37°C and 20 μL of reaction were removed at specific intervals (0–16 min) and quenched with 20 μL of 2X STOP dye containing EDTA, glycerol, bromphenol blue and xylene cyanol. Samples were electrophoresed for 1.5 hr at 200 V on a 12% non-denaturing PAGE gel in 1X TBE Buffer.
Eighteen compounds were selected based on potency of inhibition in both the screening and radiometric assays, and exclusion of compounds with undesired chemical features. For each compound, we performed titrations over a wide range of concentrations with a fixed concentration of full-length WRN protein (1 nM), and quantitated unwinding as a percentage of full-length WRN unwinding of the FORKR DNA substrate (0.5 nM) in the absence of compound (Fig 6A and 6B, S3 Fig). […] In addition to determining an IC50 value for each compound, we also conducted helicase assays to determine the reversibility of inhibition by each compound tested. Details of the assay can be found in the Materials and Methods section, but briefly 100 nM WRN was incubated with each compound at a concentration 10-fold higher than its IC50 value. The reaction was diluted 100-fold with the addition of DNA substrate (0.5 nM final concentration) and ATP (2 mM final concentration) and unwinding was measured (Fig 7A–7D, S4 Fig). Inhibition was either classified as reversible, partially reversible, minimally reversible, or irreversible based on the ability of helicase activity to recover after dilution of the compound 100-fold. Table 2 summarizes the IC50 values and reversibility for each compound and includes IC50 values obtained from the screens for comparison.

Assay [3] has as its target T2, GST-WRN500-946 helicase domain fragment (Homo sapiens, UniProt Q14191).
T2 construct: made in house; host or cells: insect cells
In words: High-throughput fluorometric helicase screen, PubChem AID 651768. In kind it is biochemical. As to conditions: initial qHTS; 20 nM GST-WRN500-946; 100 nM FORKF; NA = Not Active; read-out: IC50 (μM) Assay ID 651768. On the procedure: (§1) The structures of the members of this collection are available in the PubChem portal https://pubchem.ncbi.nlm.nih.gov/. For both the 350,000 small molecule collection and the LOPAC^1280 screens, 3 μL of GST-WRN500-946 or reaction buffer only were dispensed using a solenoid-valve nanoliter dispenser into a black 1536-well plate (Greiner). Twenty three nL of each serially diluted compound (0.08–50 μM for the LOPAC screen and 0.003–114 μM for the larger library screen) or control were added to each well using a Kalypsys pintool equipped with a 1536-pin array. Plates were incubated at room temperature for 15 min, followed by initiation of the reactions via the addition of 1 μL of substrate (100 nM FORKF and 2 mM ATP final concentrations). Plates were transferred to a ViewLux high-throughput CCD imager and fluorescence was measured in kinetic mode using an excitation filter of 525 nm and emission filter of 598 nm.
(§2) Zʹ factor, a measure for assay quality control was calculated using the formula Z′ = 1−(3σS^++3σS^−)∕|μS^+−μS^−| as described previously. In this formula, 3σS^+ represents 3 standard deviations from the mean of positive signals while 3σS^− represents 3 standard deviations from the mean of negative signals. μS^+ and μS^− represent the mean of positive signals and negative signals respectively. Percent activity was derived using in-house software (http://tripod.nih.gov/curvefit/). Dose-response curves were classified as described previously.
(§3) A collection of approximately 350,000 compounds is available for screening which has been assembled from multiple sources to provide diverse chemical scaffolds with known purity, identity and solubility. To perform the high-throughput screen of these compounds, we needed to produce approximately 50 milligrams of recombinant WRN helicase fragment. To accomplish this, we cloned the helicase domain fragment into several plasmids for either insect cell or bacterial expression to optimize expression and yield. We selected expression plasmids for insect cell expression with either a GST or MBP tag (image A in S1 Fig) and purified the protein (image B in S1 Fig). The GST-WRN500-946 fragment isolated from insect cells was used in the high throughput screen with the conditions described in Fig 2C (20 nM GST-WRN500-946, 100 nM FORKF DNA substrate) and a summary of the results can be found on PubChem (National Center for Biotechnology Information. PubChem BioAssay Database; Assay Identifier (AID) = 651768, https://pubchem.ncbi.nlm.nih.gov/bioassay/651768). […] To verify the active compounds, approximately 600 hit molecules were retested in a confirmatory screen also found on PubChem (National Center for Biotechnology Information. PubChem AID = 720497, https://pubchem.ncbi.nlm.nih.gov/bioassay/720497). Of these, a little less than four hundred compounds were confirmed as active compounds.
A general note: In qHTS, concentration-response curves come from the screen itself.

For assay [4], the target named is T2, GST-WRN500-946 helicase domain fragment. In words: Confirmatory fluorometric helicase screen, PubChem AID 720497. In kind it is biochemical. As to conditions: 20 nM GST-WRN500-946, 100 nM FORKF, NA = Not Active, read-out: IC50 (μM) Assay ID 720497. The protocol: as §1, §2, §3
Assay [5] has as its target T3, WRN helicase domain fragment (Homo sapiens, UniProt Q14191).
T3 construct: GST (N); made in house
In words: WRN-hel-f2 protocol qHTS confirmatory (15 compound confirmatory assay). As to conditions: NA = Not Active. In kind it is biochemical. The protocol: as §1

In assay [6] the target is T4, GST-WRN500-946 helicase fragment (Homo sapiens, UniProt Q14191).
T4 construct: made in house
Description: Radiometric helicase assay with GST-WRN500-946 fragment (LOPAC hit validation). It counts as biochemical. As to conditions: GST-WRN500-946 20 nM; FORKR 0.5 nM; increasing concentrations.

In the next assay the test system is HeLa 1.2.11 cells. Description: HeLa cell proliferation assay (WST-1). It counts as cell-based, human. As to conditions: 50 μM, 3-day time course. The protocol: WRN inhibitors were diluted in DMSO to a concentration 100-fold higher than their final concentrations. U2-OS cells in culture were counted, spun down and resuspended to 35,000 cells/mL in DMEM with 10% FBS and Pen/Strep antibiotic. For each cell condition, 15 μL of DMSO or inhibitor was added to 1.5 ml of U2-OS cells in DMEM or DMEM alone. One hundred μL of each cell condition was plated in triplicate on each of four 96-well plates representing days 0–3. Ten μL of WST-1 cell proliferation reagent (Roche) was added to the day 0 plate and readings were taken 2 hr later using a plate reader set to 450 nm. WST-1 cell proliferation reagent was added to plates on days 1–3 and readings were taken after 2 hr incubation. Percent cell proliferation was normalized to cells in the presence of DMSO with the background OD450 of DMEM with each drug subtracted out. […]
Fig 9 Effects of WRN helicase inhibitors on cancer cell proliferation. (A) Cell proliferation of HeLa 1.2.11 cells treated with 50 μM NCGC00029283-03, NCGC00063279-03, NCGC00357377-01 and NSC 617145 (positive control) or vehicle (DMSO) on Day 0 and Day 3 as measured using the WST-1 cell proliferation reagent. […]

What is called IC50 is the midpoint of a concentration-inhibition curve.

T3 sequence (Q14191 500-946): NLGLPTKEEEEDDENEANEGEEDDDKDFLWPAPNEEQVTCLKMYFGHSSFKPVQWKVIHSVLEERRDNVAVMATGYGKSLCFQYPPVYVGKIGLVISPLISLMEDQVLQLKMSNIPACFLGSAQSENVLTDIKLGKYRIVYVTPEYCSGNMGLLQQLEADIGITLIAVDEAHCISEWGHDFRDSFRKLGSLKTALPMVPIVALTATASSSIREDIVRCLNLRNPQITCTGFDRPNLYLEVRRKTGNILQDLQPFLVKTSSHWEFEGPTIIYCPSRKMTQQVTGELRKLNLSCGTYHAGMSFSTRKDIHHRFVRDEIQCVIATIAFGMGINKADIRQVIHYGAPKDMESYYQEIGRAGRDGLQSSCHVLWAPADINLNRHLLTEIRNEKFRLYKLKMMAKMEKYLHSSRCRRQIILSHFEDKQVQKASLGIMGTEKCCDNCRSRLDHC
T2 sequence (Q14191 500-946): as above
T1 sequence (Q14191 whole entry): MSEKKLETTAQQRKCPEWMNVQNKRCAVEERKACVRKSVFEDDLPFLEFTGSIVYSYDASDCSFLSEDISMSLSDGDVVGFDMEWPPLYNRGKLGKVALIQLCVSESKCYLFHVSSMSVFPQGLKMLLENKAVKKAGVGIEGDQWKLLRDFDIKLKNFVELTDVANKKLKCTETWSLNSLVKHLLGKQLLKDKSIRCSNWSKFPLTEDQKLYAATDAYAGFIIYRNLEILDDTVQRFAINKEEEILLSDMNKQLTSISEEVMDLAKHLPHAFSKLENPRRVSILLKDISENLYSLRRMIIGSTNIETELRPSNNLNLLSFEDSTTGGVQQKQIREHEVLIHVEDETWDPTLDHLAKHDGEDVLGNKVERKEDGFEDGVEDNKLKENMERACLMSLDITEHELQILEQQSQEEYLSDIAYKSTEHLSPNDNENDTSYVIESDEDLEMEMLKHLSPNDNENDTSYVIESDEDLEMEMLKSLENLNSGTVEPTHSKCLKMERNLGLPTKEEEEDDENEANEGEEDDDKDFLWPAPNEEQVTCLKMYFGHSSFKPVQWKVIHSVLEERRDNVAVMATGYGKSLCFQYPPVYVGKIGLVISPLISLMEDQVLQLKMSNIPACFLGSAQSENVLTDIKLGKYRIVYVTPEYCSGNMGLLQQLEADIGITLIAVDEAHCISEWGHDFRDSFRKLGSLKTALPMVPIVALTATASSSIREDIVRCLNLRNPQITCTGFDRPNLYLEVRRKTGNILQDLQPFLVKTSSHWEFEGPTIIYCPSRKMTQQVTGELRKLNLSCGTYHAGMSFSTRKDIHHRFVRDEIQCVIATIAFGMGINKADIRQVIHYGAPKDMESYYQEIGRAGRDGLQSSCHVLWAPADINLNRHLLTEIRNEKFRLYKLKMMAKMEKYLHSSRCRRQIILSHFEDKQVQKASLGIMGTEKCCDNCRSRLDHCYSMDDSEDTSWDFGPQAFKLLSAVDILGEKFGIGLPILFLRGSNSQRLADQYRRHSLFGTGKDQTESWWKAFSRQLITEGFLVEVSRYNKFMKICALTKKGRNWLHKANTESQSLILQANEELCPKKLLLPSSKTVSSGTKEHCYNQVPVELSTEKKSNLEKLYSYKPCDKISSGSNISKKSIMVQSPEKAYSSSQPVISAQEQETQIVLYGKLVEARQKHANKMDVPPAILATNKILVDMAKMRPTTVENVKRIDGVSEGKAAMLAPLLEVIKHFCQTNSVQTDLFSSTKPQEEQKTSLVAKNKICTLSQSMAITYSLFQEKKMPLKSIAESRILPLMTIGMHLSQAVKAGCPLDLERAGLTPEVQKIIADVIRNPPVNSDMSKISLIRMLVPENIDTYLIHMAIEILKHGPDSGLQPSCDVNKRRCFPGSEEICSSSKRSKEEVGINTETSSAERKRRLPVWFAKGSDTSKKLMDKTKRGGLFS
T4 sequence (Q14191 500-946): as the sequence (Q14191 500-946) above

As for `COC(=O)c1cc(NC(=O)c2ccc3c(c2)NC(=O)c2ccccc2S3)cc(C(=O)OC)c1` [NCGC00113056-02], the remaining activity at 50 µM on full-length WRN helicase [1] was determined as 10%. In addition, the 50% inhibitory concentration (IC50) at full-length WRN helicase [1] was 2 µM; in assay [3], 16.8 µM; in assay [4], 13.6 µM; in assay [5] it was 1.26 µM. Besides, the Reversibility result at full-length WRN helicase [2] is “+”.

Regarding `O=C(c1cccc(-n2cccc2)c1)N1CCN(S(=O)(=O)c2ccccc2)CC1` [MLS001139594-03], on full-length WRN helicase [1], the remaining activity at 50 µM amounted to 4%. For the same compound, the IC50 at full-length WRN helicase [1] is 10 µM; in assay [3], 4.7 µM; in assay [4], 4.3 µM; in assay [5] it was 0.35 µM. Also, on full-length WRN helicase [2], the Reversibility result is “-”.

`COc1cc2nc(N3CCCN(C)CC3)nc(NC3CCN(Cc4ccccc4)CC3)c2cc1OC` [NCGC00185850-03]: the “Inhibition of GST-WRN500-946 unwinding of radiolabeled FORKR” value in assay [6] is given as “inhibition”.

Regarding `CC(C)(CN1C(=O)C(Cl)=C(Cl)C1=O)CN1C(=O)C(Cl)=C(Cl)C1=O` [NSC 617145, reference compound], the “Effect on HeLa 1.2.11 cell proliferation” value in the assay with HeLa 1.2.11 cells was “very potent inhibition”.

Consider `N#CSc1ccc2oc(C3=NCCN3)cc2c1` [NCGC00015168-04], for which, in assay [6], the “Inhibition of GST-WRN500-946 unwinding of radiolabeled FORKR” value is recorded as “inhibition”.

Turning to `COc1ccccc1Nc1ccc2c(O)cc(S(=O)(=O)O)cc2c1` [MLS002608028-02], the remaining activity at 50 µM on full-length WRN helicase [1] came to 3%. For the same compound, the IC50 at full-length WRN helicase [1] was determined as 2 µM; in assay [3], 2.7 µM; in assay [4], 6.1 µM; in assay [5], 0.35 µM. The Reversibility entry on full-length WRN helicase [2] was “+++”.

For the origin of these results see PMC6326523, “A high-throughput screen to identify novel small molecule inhibitors of the Werner Syndrome Helicase-Nuclease (WRN)” (PLoS ONE, 2019).
